Tests used:
[1] = target: Tyrosine-protein kinase Lyn (Homo sapiens) (UniProt P07948); assay: Inhibition of human Lyn at 10 uM after 60 mins by TR-FRET assay; conditions: values are per cent of control
[2] = target: mTOR/FKBP12A/FKBP12B (Homo sapiens) (UniProt P62942+P68106+P42345); assay: Inhibition of human mTOR/FKBP12 at 10 uM after 60 mins by TR-FRET assay; assay type: protein-complex assay; conditions: values are per cent of control
[3] = target: Ribosomal protein S6 kinase alpha-2 (Homo sapiens) (UniProt Q15349); assay: Inhibition of human Rsk3 at 10 uM after 60 mins by TR-FRET assay; conditions: values are per cent of control
Ribosomal protein S6 kinase alpha-2 (Homo sapiens), sequence (Q15349 whole entry): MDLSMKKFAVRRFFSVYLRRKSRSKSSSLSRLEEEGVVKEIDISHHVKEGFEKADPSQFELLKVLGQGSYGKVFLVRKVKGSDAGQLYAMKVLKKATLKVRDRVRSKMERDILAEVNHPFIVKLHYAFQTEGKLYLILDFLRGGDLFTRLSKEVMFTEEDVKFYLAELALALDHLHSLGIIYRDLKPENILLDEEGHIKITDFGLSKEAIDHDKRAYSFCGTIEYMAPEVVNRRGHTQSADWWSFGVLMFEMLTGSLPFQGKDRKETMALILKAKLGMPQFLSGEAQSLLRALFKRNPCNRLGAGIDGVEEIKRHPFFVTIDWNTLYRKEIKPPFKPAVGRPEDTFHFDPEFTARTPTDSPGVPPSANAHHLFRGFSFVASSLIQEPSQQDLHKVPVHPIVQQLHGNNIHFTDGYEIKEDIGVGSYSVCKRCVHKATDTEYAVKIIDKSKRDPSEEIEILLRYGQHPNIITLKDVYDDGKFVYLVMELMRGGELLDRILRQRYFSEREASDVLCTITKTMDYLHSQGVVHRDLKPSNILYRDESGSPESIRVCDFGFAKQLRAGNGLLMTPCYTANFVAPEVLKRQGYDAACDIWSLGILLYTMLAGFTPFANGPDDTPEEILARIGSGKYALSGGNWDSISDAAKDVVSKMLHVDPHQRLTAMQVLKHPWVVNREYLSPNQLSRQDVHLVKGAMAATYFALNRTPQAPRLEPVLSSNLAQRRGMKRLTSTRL

[4] = target: Mitogen-activated protein kinase 12 (Homo sapiens) (UniProt P53778); assay: Inhibition of human SAPK3 at 10 uM after 60 mins by TR-FRET assay; conditions: values are per cent of control
[5] = target: Tyrosine-protein kinase Lyn (Mus musculus) (UniProt P25911); assay: Inhibition of mouse Lyn at 10 uM after 60 mins by TR-FRET assay; values are per cent of control
Tyrosine-protein kinase Lyn (Mus musculus), sequence (P25911 whole entry): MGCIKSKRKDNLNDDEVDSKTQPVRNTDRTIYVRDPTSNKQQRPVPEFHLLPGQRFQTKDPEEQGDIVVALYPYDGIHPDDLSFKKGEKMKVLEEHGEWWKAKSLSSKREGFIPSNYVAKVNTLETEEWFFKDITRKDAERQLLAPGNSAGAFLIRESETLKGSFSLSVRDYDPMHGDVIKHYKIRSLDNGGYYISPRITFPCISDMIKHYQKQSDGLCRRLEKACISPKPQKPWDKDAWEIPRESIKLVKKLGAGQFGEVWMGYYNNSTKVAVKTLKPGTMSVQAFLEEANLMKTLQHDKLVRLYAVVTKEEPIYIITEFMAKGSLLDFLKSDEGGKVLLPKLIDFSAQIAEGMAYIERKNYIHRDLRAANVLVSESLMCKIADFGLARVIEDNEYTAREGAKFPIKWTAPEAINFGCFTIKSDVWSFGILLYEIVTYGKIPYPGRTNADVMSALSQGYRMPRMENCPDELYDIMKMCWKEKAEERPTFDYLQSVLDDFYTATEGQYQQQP

[6] = target: Casein kinase II (Homo sapiens) (UniProt P67870+P68400+P19784); assay: Inhibition of human CK2 at 10 uM after 60 mins by TR-FRET assay; values are per cent of control
[7] = target: Receptor-type tyrosine-protein kinase FLT3 (Homo sapiens) (UniProt P36888); assay: Inhibition of human Flt3 at 10 uM after 60 mins by TR-FRET assay; values are per cent of control
[8] = target: Serine/threonine-protein kinase STK11 (Homo sapiens) (UniProt Q15831); assay: Inhibition of human LKB1 at 10 uM after 60 mins by TR-FRET assay; values are per cent of control
[9] = target: Serine/threonine-protein kinase TAO1 (Homo sapiens) (UniProt Q7L7X3); assay: Inhibition of human TAO1 at 10 uM after 60 mins by TR-FRET assay; values are per cent of control
[10] = target: Serine/threonine-protein kinase TAO2 (Homo sapiens) (UniProt Q9UL54); assay: Inhibition of human TAO2 at 10 uM after 60 mins by TR-FRET assay; values are per cent of control
[11] = target: NUAK family SNF1-like kinase 1 (Homo sapiens) (UniProt O60285); assay: Inhibition of human ARK5 at 10 uM after 60 mins by TR-FRET assay; values are per cent of control
[12] = target: Myotonin-protein kinase (Homo sapiens) (UniProt Q09013); assay: Inhibition of human DMPK at 10 uM after 60 mins by TR-FRET assay; values are per cent of control
Myotonin-protein kinase (Homo sapiens), sequence (Q09013 whole entry): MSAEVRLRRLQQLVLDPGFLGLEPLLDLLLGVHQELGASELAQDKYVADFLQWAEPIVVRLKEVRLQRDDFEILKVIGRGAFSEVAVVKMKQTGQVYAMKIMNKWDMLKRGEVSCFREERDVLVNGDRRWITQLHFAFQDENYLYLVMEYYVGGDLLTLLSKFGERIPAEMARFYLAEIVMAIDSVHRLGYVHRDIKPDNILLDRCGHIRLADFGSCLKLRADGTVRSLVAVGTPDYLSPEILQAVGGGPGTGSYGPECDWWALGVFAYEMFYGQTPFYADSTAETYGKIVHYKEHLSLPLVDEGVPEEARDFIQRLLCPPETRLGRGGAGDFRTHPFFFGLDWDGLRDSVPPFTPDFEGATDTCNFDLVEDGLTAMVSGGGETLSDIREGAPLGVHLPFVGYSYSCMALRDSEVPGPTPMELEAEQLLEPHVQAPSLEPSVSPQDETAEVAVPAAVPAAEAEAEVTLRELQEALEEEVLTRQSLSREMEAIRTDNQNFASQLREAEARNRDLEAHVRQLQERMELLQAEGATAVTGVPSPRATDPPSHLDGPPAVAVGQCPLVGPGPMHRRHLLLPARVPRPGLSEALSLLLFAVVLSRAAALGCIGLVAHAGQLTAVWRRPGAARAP

[13] = target: Serine/threonine-protein kinase PAK 3 (Homo sapiens) (UniProt O75914); assay: Inhibition of human PAK3 at 10 uM after 60 mins by TR-FRET assay; values are per cent of control
[14] = target: Serine/threonine-protein kinase PAK 5 (Homo sapiens) (UniProt Q9P286); assay: Inhibition of human PAK5 at 10 uM after 60 mins by TR-FRET assay; values are per cent of control
Serine/threonine-protein kinase PAK 5 (Homo sapiens), sequence (Q9P286 whole entry, looked up): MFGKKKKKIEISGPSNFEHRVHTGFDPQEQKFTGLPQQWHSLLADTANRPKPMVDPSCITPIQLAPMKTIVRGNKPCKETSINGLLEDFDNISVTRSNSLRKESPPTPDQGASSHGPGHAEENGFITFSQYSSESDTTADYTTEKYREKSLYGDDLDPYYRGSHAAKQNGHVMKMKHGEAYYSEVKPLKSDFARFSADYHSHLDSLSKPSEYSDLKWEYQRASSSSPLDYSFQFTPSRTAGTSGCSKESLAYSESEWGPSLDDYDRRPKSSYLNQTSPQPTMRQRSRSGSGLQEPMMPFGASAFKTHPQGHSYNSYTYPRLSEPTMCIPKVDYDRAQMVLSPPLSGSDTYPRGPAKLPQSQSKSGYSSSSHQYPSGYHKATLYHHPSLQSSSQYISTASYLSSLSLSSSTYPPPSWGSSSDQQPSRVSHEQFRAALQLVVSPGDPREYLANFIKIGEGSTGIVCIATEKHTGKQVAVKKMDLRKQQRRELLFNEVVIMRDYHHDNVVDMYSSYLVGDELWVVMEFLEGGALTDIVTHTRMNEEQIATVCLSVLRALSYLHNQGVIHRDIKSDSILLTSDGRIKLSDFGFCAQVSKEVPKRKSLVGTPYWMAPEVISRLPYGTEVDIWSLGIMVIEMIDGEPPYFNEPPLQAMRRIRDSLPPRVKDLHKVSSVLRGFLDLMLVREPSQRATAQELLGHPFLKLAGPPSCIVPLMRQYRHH

[15] = target: Serine/threonine-protein kinase PLK3 (Homo sapiens) (UniProt Q9H4B4); assay: Inhibition of human Plk3 at 10 uM after 60 mins by TR-FRET assay; values are per cent of control
[16] = target: Fibroblast growth factor receptor 4 (Homo sapiens) (UniProt P22455); assay: Inhibition of human FGFR4 at 10 uM after 60 mins by TR-FRET assay; values are per cent of control
[17] = target: Homeodomain-interacting protein kinase 3 (Homo sapiens) (UniProt Q9H422); assay: Inhibition of human HIPK3 at 10 uM after 60 mins by TR-FRET assay; values are per cent of control
[18] = target: Testis-specific serine/threonine-protein kinase 2 (Homo sapiens) (UniProt Q96PF2); assay: Inhibition of human TSSK2 at 10 uM after 60 mins by TR-FRET assay; values are per cent of control
[19] = target: Serine/threonine-protein kinase BRSK2 (Homo sapiens) (UniProt Q8IWQ3); assay: Inhibition of human BrSK2 at 10 uM after 60 mins by TR-FRET assay; values are per cent of control
[20] = target: Serine/threonine-protein kinase pim-2 (Homo sapiens) (UniProt Q9P1W9); assay: Inhibition of human Pim-2 at 10 uM after 60 mins by TR-FRET assay; values are per cent of control
[21] = target: RAC-gamma serine/threonine-protein kinase (Homo sapiens) (UniProt Q9Y243); assay: Inhibition of human PKBgamma at 10 uM after 60 mins by TR-FRET assay; values are per cent of control
RAC-gamma serine/threonine-protein kinase (Homo sapiens), sequence (Q9Y243 whole entry): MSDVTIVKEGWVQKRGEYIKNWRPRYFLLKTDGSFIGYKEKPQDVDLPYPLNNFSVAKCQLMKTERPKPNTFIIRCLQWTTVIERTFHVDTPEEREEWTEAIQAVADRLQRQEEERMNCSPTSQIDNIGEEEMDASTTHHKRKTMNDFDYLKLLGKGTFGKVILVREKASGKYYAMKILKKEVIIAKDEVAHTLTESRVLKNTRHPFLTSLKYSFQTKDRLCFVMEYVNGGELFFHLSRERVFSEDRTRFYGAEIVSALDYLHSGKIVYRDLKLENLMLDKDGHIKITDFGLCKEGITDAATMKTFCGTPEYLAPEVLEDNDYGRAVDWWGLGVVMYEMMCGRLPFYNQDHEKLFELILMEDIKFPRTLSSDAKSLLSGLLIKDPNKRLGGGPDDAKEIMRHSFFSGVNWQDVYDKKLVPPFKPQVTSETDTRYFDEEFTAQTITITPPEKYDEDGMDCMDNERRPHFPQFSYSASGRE

[22] = target: Protein kinase C alpha type (Homo sapiens) (UniProt P17252); assay: Inhibition of human PKCalpha at 10 uM after 60 mins by TR-FRET assay; values are per cent of control
[23] = target: Protein kinase C delta type (Homo sapiens) (UniProt Q05655); assay: Inhibition of human PKCdelta at 10 uM after 60 mins by TR-FRET assay; values are per cent of control
[24] = target: Platelet-derived growth factor receptor alpha (Homo sapiens) (UniProt P16234); assay: Inhibition of human PDGFRalpha at 10 uM after 60 mins by TR-FRET assay; values are per cent of control
Platelet-derived growth factor receptor alpha (Homo sapiens), sequence (P16234 whole entry): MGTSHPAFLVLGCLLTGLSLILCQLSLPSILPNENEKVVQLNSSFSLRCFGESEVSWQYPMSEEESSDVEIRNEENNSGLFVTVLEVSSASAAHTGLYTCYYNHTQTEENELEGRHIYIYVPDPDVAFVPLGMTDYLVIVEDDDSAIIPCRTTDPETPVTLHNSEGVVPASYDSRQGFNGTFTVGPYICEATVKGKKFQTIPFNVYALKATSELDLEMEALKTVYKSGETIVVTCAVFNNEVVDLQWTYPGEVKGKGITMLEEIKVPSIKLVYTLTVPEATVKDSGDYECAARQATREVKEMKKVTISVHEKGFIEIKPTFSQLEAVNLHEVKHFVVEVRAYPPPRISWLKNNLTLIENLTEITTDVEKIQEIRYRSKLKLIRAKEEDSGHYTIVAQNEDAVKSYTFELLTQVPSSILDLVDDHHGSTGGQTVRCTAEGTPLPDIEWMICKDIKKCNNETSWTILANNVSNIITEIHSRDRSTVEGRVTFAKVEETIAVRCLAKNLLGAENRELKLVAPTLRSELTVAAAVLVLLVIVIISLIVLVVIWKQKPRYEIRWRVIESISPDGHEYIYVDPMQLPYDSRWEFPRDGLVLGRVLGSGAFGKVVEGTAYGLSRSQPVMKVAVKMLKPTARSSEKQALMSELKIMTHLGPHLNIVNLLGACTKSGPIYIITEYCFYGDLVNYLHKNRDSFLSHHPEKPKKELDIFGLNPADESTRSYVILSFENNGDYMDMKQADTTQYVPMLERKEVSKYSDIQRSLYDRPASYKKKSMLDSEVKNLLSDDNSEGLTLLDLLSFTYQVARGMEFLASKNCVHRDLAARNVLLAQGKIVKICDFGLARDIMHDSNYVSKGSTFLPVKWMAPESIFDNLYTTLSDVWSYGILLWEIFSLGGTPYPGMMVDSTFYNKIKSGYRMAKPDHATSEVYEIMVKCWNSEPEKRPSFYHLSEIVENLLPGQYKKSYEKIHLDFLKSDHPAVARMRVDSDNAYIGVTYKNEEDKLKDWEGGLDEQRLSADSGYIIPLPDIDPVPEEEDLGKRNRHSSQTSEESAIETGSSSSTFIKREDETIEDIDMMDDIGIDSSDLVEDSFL

[25] = target: Cyclin-dependent kinase 2/cyclin A (Homo sapiens) (UniProt P24941+P20248+P78396); assay: Inhibition of human CDK2/cyclinA at 10 uM after 60 mins by TR-FRET assay; values are per cent of control
[26] = system: Serine/threonine-protein kinase Chk2 (Homo sapiens), O96017 [I157T]; assay: Inhibition of human CHK2 I157T mutant at 10 uM after 60 mins by TR-FRET assay; values are per cent of control
[27] = system: Fibroblast growth factor receptor 2 (Homo sapiens), P21802 [N549H]; assay: Inhibition of human FGFR2 N549H mutant at 10 uM after 60 mins by TR-FRET assay; values are per cent of control

Q: What does the source list for S=c1[nH]nc(-c2ccncc2)n1-c1ccc2ccccc2c1?
A: residual activity [1]: 102%; residual activity [2]: 107%; residual activity [3]: 90%; residual activity [4]: 110%; residual activity [5]: 100%; residual activity [6]: 110%; residual activity [7]: 119%; residual activity [8]: 123%; residual activity [9]: 104%; residual activity [10]: 103%; residual activity [11]: 103%; residual activity [12]: 111%; residual activity [13]: 99%; residual activity [14]: 101%; residual activity [15]: 106%; residual activity [16]: 95%; residual activity [17]: 109%; residual activity [18]: 107%; residual activity [19]: 103%; residual activity [20]: 111%; residual activity [21]: 110%; residual activity [22]: 93%; residual activity [23]: 111%; residual activity [24]: 99%; residual activity [25]: 114%; residual activity [26]: 108%; residual activity [27]: 91%
